Values quoted from earlier work, collected in patent US20240180852A1, “TREATMENT FOR MALIGNANT PLEURAL EFFUSION IN HUMANS” (Signpath Pharma, Inc., priority 2021, published 2024).

What was measured:
[1] = in vivo

- bioavailability [1]: low bioavailability
- solubility: low solubility
Structure (SMILES): COc1cc(C=CC(=O)CC(=O)C=Cc2ccc(O)c(OC)c2)ccc1O [curcumin, 1,7-bis(4-hydroxy-3-methoxyphenyl)-1,6-heptadiene-3,5-dione]
